Experimental data reported in patent publication US5096904A, “Pyridazinones having cardiotonic and beta blocking activities” (Glaxo Inc., priority 1990, dated 1992).

Test system: dP/dt (contractility) in barbiturate-anesthetized dogs
Assay: Anesthetized dog, inotropic effect (baseline left ventricular dP/dt)
Assay type: in vivo, mongrel dogs
Settings: with atenolol
Method: Inotropic effects were evaluated in barbiturate-anesthetized dogs by differentiating left intraventricular pressure. This procedure was carried out essentially as described by M. K. Grizzel et al in the FASEB Journal, Vol. 3, page 1039, abstract 4728 (1989). […] Cardiac output was determined via thermodilution with a Spectramed computer (Starcom, Oxnard, Calif.) and a 5F Swan Ganz catheter which was inserted into the right jugular vein and positioned in the pulmonary artery. […] A lead II electrocardiogram was measured using subcutaneous electrodes. […] Rectal temperature was monitored and maintained at 37°-38° C. with a heating pad (Baxter Health Care model K20, McGaw Park, Ill.). All variables were recorded using a Gould 3800S physiograph.
Isoproterenol (0.1-0.5 mg/kg) was injected i.v. into the cephalic vein at 10 min intervals except for when the test drug infusion was begun. […] Inhibition of the isoproterenol responses on contractility (dP/dt), heart rate and diastolic blood pressure were determined at each dose of test compound. The inotropic effect of each compound was determined by comparing the level of dP/dt at the end of each 10 min period to that of the level of dP/dt just prior to the infusion of test compound. […]

O=C(COc1ccc(C2=NNC(=O)CC2)cc1Cl)NCCNC[C@H](O)COc1ccccc1 [Example 19, 6-{4-[N-[2-[3-phenoxy-2-hydroxypropylamino]ethyl]carbamoylmethoxy]-3-chlorophenyl}-4,5-dihydro-3(2H)-pyridazinone]
inotropic effects, blockade by atenolol: not blocked by atenolol
